What was measured:
Acetylcholinesterase [1] = target: Acetylcholinesterase (Electrophorus electricus, UniProt O42275); experiment: Inhibition of electric eel AChE after 15 mins by DTNB reagent based assay
Cholinesterase [2] = target: Cholinesterase (Equus caballus, UniProt P81908); experiment: Inhibition of horse serum BChE after 15 mins by DTNB reagent based assay
Acetylcholinesterase [3] = target: Acetylcholinesterase (Homo sapiens, UniProt P22303); experiment: Inhibition of AChE (unknown origin)
Cholinesterase [4] = target: Cholinesterase (Homo sapiens, UniProt P06276); experiment: Inhibition of BChE (unknown origin)
Acetylcholinesterase [5] = target: T1, Acetylcholinesterase (Rattus norvegicus, UniProt P37136); experiment: Inhibition of rat brain AChE using acetylthiocholine iodide as substrate measured after 8 mins in presence of BChE inhibitor ethopropazine by Ellman's method
T1 sequence (P37136 whole entry): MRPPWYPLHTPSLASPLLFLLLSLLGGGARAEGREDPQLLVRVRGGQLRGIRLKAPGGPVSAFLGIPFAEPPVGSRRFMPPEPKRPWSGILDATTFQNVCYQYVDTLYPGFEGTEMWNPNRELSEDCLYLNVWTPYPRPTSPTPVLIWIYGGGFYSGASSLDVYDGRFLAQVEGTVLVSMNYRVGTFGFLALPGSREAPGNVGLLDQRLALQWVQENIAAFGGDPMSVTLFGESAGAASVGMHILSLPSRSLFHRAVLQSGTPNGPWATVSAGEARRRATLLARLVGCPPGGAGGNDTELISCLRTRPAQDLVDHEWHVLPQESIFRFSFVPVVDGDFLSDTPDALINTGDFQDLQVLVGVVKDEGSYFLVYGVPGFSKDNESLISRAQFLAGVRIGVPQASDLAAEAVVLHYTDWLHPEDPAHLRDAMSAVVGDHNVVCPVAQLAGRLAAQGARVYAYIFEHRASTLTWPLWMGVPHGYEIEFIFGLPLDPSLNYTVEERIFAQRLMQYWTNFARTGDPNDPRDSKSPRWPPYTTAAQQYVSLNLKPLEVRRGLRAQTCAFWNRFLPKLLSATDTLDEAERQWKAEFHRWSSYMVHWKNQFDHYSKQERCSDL

Butyrylcholinesterase = Butyrylcholinesterase (Rattus norvegicus, UniProt Q9JKC1); experiment: Inhibition of rat serum BChE using butyrylthiocholine iodide as substrate measured after 8 mins in presence of AChE inhibitor BW284c51 by Ellman's method
Acetylcholinesterase [6] = target: T1, Acetylcholinesterase; experiment: Inhibition of rat brain AChE
[7] = Selectivity ratio of compound effect for inhibition of horse serum BChE to compound effect for inhibition of electric eel AChE

Sequence of Acetylcholinesterase (Electrophorus electricus, UniProt O42275) (O42275 whole entry): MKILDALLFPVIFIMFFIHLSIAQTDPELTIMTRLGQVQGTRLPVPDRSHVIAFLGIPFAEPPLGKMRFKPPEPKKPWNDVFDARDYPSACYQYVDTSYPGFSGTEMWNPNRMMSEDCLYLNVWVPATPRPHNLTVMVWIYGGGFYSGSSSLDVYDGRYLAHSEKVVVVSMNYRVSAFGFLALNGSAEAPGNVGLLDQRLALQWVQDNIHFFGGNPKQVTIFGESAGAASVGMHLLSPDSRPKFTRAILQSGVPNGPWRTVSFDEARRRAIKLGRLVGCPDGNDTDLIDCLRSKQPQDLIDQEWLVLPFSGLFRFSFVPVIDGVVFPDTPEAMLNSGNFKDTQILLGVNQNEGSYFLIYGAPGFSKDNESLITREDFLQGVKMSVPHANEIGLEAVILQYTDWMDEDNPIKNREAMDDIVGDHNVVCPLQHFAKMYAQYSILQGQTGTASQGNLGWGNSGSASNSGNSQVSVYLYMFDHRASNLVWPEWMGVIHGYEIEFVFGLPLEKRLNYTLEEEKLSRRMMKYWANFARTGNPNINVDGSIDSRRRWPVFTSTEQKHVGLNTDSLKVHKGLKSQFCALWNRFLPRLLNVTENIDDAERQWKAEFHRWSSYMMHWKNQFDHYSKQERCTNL
Sequence of Cholinesterase (Equus caballus, UniProt P81908) (P81908 whole entry): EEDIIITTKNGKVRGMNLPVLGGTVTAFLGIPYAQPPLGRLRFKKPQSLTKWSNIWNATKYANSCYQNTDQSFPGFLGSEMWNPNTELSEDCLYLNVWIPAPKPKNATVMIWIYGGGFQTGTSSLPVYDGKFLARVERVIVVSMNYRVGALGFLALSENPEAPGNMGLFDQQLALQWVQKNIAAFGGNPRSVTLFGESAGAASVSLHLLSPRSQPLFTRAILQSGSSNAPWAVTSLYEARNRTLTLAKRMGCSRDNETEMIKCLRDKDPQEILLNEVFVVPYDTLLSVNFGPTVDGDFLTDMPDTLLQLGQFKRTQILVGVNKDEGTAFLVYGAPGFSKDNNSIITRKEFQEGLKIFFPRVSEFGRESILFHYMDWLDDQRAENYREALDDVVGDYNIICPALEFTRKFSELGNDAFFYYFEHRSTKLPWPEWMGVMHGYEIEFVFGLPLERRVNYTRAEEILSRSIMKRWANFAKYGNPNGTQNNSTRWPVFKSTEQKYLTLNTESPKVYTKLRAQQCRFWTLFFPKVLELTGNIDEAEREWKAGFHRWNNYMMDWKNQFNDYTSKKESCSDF
Sequence of Cholinesterase (Homo sapiens, UniProt P06276) (P06276 whole entry): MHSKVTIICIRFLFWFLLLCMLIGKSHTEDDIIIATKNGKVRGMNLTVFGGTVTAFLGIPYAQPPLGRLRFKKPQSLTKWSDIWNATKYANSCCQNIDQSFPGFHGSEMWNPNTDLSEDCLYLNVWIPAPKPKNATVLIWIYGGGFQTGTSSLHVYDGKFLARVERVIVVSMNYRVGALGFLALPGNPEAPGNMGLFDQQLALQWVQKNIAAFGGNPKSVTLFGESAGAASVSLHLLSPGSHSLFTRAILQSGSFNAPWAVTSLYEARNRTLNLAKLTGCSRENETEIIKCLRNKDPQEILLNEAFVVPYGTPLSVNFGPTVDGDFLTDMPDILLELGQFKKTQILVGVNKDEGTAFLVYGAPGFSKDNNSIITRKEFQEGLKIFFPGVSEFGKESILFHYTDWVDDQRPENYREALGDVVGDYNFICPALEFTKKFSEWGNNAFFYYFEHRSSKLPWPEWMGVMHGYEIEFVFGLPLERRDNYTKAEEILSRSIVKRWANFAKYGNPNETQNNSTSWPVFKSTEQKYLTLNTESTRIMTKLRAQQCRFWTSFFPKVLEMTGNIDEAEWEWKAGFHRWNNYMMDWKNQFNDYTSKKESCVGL
Sequence of Butyrylcholinesterase (Q9JKC1 whole entry): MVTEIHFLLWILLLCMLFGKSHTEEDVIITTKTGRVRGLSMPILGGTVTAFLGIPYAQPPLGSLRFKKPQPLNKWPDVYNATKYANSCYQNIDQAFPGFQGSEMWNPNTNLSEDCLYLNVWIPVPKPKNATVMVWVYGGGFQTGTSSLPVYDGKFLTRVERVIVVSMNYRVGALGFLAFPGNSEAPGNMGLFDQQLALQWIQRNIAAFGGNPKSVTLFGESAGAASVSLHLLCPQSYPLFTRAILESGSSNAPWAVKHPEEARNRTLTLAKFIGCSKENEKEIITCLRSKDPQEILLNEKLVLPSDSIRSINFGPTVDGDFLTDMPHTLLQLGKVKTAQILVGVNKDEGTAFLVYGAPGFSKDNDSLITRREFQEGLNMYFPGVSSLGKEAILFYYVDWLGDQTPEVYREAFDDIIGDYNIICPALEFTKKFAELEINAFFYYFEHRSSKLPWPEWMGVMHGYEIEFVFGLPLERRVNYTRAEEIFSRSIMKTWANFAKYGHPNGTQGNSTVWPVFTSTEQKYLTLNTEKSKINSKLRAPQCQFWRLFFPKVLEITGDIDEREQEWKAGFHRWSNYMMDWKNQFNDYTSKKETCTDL
Sequence of Acetylcholinesterase (Homo sapiens, UniProt P22303) (P22303 whole entry): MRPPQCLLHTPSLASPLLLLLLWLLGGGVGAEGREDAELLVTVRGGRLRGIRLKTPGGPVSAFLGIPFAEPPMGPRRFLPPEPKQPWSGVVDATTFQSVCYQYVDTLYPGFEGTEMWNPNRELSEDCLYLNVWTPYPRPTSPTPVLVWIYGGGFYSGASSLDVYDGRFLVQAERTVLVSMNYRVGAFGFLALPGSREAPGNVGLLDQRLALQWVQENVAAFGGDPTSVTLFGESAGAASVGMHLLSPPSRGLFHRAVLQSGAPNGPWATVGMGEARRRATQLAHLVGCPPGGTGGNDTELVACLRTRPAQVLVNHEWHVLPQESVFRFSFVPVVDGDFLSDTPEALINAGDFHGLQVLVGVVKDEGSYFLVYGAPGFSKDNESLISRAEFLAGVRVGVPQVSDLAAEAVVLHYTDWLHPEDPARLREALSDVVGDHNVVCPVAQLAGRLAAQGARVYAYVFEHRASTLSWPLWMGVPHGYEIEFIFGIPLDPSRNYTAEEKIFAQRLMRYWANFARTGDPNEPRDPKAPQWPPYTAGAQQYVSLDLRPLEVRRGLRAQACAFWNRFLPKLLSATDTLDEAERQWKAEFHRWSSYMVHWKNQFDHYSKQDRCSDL

Clc1ccc2c(-n3cc(CCCCN4CCN(c5c6c(nc7cc(Cl)ccc57)CCCC6)CC4)nn3)ccnc2c1
IC50 (Acetylcholinesterase [1]): 19.6 µM
IC50 (Cholinesterase [2]): > 100 µM

Clc1ccc2c(-n3cc(CCCCN4CCN(c5c6c(nc7ccccc57)CCCC6)CC4)nn3)ccnc2c1
IC50 (Acetylcholinesterase [1]): 10 µM
IC50 (Cholinesterase [2]): 66.7 µM

O=C(CCCCc1cn(-c2ccnc3cc(Cl)ccc23)nn1)N1CCN(c2c3c(nc4ccccc24)CCCC3)CC1
IC50 (Acetylcholinesterase [1]): 11.1 µM
IC50 (Cholinesterase [2]): > 100 µM

CCN(CC)c1ccc(/C=C/c2cc(N3CCCCC3)c3ccccc3n2)cc1
IC50 (Acetylcholinesterase [3]): 64.1 µM
IC50 (Cholinesterase [4]): 0.2 µM

C1=CCc2c(nc3ccccc3c2NCCCCCCCCNc2ccnc3ccccc23)C1
IC50 (Acetylcholinesterase [5]): 0.0088 µM
IC50 (Butyrylcholinesterase): 0.126 µM

O=C(CCCCc1cn(-c2ccnc3cc(Cl)ccc23)nn1)N1CCN(c2c3c(nc4cc(Cl)ccc24)CCCC3)CC1
IC50 (Acetylcholinesterase [1]): 18.7 µM
IC50 (Cholinesterase [2]): > 100 µM

Clc1ccc2c(-n3cc(CCCN4CCN(c5c6c(nc7ccccc57)CCCC6)CC4)nn3)ccnc2c1
IC50 (Acetylcholinesterase [1]): 4.89 µM
IC50 (Cholinesterase [2]): 3.61 µM

CN(CCCC(=O)N1CCN(c2c3c(nc4ccccc24)CCCC3)CC1)Cc1cn(-c2ccnc3cc(Cl)ccc23)nn1
IC50 (Acetylcholinesterase [1]): > 100 µM
IC50 (Cholinesterase [2]): 61.1 µM

C#CCN(C)Cc1ccc(OC(=O)N(C)C)c2ncccc12
IC50 (Acetylcholinesterase [6]): 0.5 µM

O=C(CCCCc1cn(-c2ccnc3cc(Cl)ccc23)nn1)NCCNc1c2c(nc3cc(Cl)ccc13)CCCC2
IC50 (Acetylcholinesterase [1]): > 100 µM
IC50 (Cholinesterase [2]): 6.06 µM
Selectivity ratio [7]: 2

Reference: ChEMBL document CHEMBL4261572, “Design, synthesis and biological evaluation of tacrine-1,2,3-triazole derivatives as potent cholinesterase inhibitors” (Medchemcomm, 2018)
